Data reported in PubChem BioAssay AID1259407 (Chemical Carcinogenesis Research Information System (CCRIS), 2018).
Calls of active or inactive are those of the source. How the calls were made is not given here.

Test system: CCRIS mutagenicity, Ames/micronucleus/aberration tests
Test: CCRIS mutagenicity studies

For `C/C=C(\C)C(=O)O[C@H]1C[C@@H](OC(C)=O)[C@@]2(C(=O)OC)CO[C@H]3[C@@H](O)[C@@](C)([C@]45O[C@@]4(C)[C@H]4C[C@@H]5O[C@@H]5OC=C[C@@]54O)[C@H]4[C@]1(CO[C@]4(O)C(=O)OC)[C@@H]32`, the mutagenic call (End Point: IN VIVO CHROMOSOMAL ABERRATIONS, Test System: BONE MARROW, Species: MOUSE, Strain/Sex: SWR/J/MALE,FEMALE, Route: ORAL (GAVAGE)) was “inactive; negative” and the mutagenic call (End Point: In vivo chromosomal aberrations, Test System: Bone marrow cells, Species: Mouse, Strain/Sex: Swiss/Male, Route: Oral) was “active; positive (structural changes)”.
For `Oc1cc2c3c(cc4cccc5ccc1c3c54)-c1ccccc1-2`, the mutagenic call (Test System: AMES SALMONELLA TYPHIMURIUM, Strain/Indicator: TA100, Metabolic Activation: RAT, LIVER, S-9, AROCLOR 1254, Method: STANDARD PLATE) was “inactive; negative”.
`O=S(=O)(O)c1cc(N=Nc2ccc(O)cc2)ccc1C=Cc1ccc(N=Nc2ccc(O)cc2)cc1S(=O)(=O)O` was tested, and the mutagenic call (Test System: MOUSE LYMPHOMA, Strain/Indicator: L5178Y (TK+/TK-), Metabolic Activation: NONE, Method: SUSPENSION/PLATE) was “inactive; negative. reevaluation of results: negative” and the mutagenic call (Test System: MOUSE LYMPHOMA, Strain/Indicator: L5178Y (TK+/TK-), Metabolic Activation: RAT, LIVER, S-9, AROCLOR 1254, Method: SUSPENSION/PLATE) was “inactive; negative. reevaluation of results: negative”.
`C[C@]12CC[C@@H]3c4ccc(O)cc4CC[C@H]3[C@@H]1C[C@@H](O)C2=O` was tested, and the mutagenic call (Test System: Ames Salmonella typhimurium, Strain/Indicator: TA98, Metabolic Activation: None, Method: Standard plate) was “inactive; negative”, the mutagenic call (Test System: Ames Salmonella typhimurium, Strain/Indicator: TA98, Metabolic Activation: Rat, liver, S-9, Method: Standard plate) was “inactive; negative” and the mutagenic call (Test System: Ames Salmonella typhimurium, Strain/Indicator: TA100, Metabolic Activation: None, Method: Standard plate) was “inactive; negative”. The mutagenic call (Test System: Ames Salmonella typhimurium, Strain/Indicator: TA100, Metabolic Activation: Rat, liver, S-9, Method: Standard plate) was “inactive; negative”.
For `CC(=O)NC[C@H](O)COc1cccc2ccccc12`, the mutagenic call (Test System: AMES SALMONELLA TYPHIMURIUM, Strain/Indicator: TA98, Metabolic Activation: RAT, LIVER, S-9, AROCLOR 1254, Method: PREINCUBATION) was “inactive; negative”, the mutagenic call (Test System: AMES SALMONELLA TYPHIMURIUM, Strain/Indicator: TA100, Metabolic Activation: RAT, LIVER, S-9, AROCLOR 1254, Method: PREINCUBATION) was “inactive; negative” and the mutagenic call (Test System: AMES SALMONELLA TYPHIMURIUM, Strain/Indicator: TA104, Metabolic Activation: RAT, LIVER, S-9, AROCLOR 1254, Method: PREINCUBATION) was “active; positive”. For the same compound, the mutagenic call (Test System: AMES SALMONELLA TYPHIMURIUM, Strain/Indicator: TA1535, Metabolic Activation: RAT, LIVER, S-9, AROCLOR 1254, Method: PREINCUBATION) was “inactive; negative”, the mutagenic call (Test System: AMES SALMONELLA TYPHIMURIUM, Strain/Indicator: TA1538, Metabolic Activation: RAT, LIVER, S-9, AROCLOR 1254, Method: PREINCUBATION) was “inactive; negative” and the mutagenic call (Test System: AMES SALMONELLA TYPHIMURIUM, Strain/Indicator: YG1021, Metabolic Activation: RAT, LIVER, S-9, AROCLOR 1254, Method: PREINCUBATION) was “inactive; negative”. For the same compound, the mutagenic call (Test System: AMES SALMONELLA TYPHIMURIUM, Strain/Indicator: YG1024, Metabolic Activation: RAT, LIVER, S-9, AROCLOR 1254, Method: PREINCUBATION) was “inactive; negative”, the mutagenic call (Test System: AMES SALMONELLA TYPHIMURIUM, Strain/Indicator: YG1026, Metabolic Activation: RAT, LIVER, S-9, AROCLOR 1254, Method: PREINCUBATION) was “inactive; negative” and the mutagenic call (Test System: AMES SALMONELLA TYPHIMURIUM, Strain/Indicator: YG1029, Metabolic Activation: RAT, LIVER, S-9, AROCLOR 1254, Method: PREINCUBATION) was “active; positive”. The mutagenic call (Test System: AMES SALMONELLA TYPHIMURIUM, Strain/Indicator: YG1041, Metabolic Activation: RAT, LIVER, S-9, AROCLOR 1254, Method: PREINCUBATION) was “inactive; negative”, the mutagenic call (Test System: AMES SALMONELLA TYPHIMURIUM, Strain/Indicator: YG1042, Metabolic Activation: RAT, LIVER, S-9, AROCLOR 1254, Method: PREINCUBATION) was “inactive; negative” and the mutagenic call (Test System: AMES SALMONELLA TYPHIMURIUM, Strain/Indicator: YG3003, Metabolic Activation: RAT, LIVER, S-9, AROCLOR 1254, Method: PREINCUBATION) was “active; positive”.
For `CCCCCCCCC1CO1` (configuration not stated), the mutagenic call (Test System: AMES SALMONELLA TYPHIMURIUM, Strain/Indicator: TA97, Metabolic Activation: HAMSTER, LIVER, S-9, AROCLOR 1254 (10% & 30%), Method: PREINCUBATION) was “inactive; negative”, the mutagenic call (Test System: AMES SALMONELLA TYPHIMURIUM, Strain/Indicator: TA97, Metabolic Activation: NONE, Method: PREINCUBATION) was “inactive; negative” and the mutagenic call (Test System: AMES SALMONELLA TYPHIMURIUM, Strain/Indicator: TA97, Metabolic Activation: RAT, LIVER, S-9, AROCLOR 1254 (10% & 30%), Method: PREINCUBATION) was “inactive; negative”. The mutagenic call (Test System: AMES SALMONELLA TYPHIMURIUM, Strain/Indicator: TA98, Metabolic Activation: HAMSTER, LIVER, S-9, AROCLOR 1254 (10% & 30%), Method: PREINCUBATION) was “inactive; negative”, the mutagenic call (Test System: AMES SALMONELLA TYPHIMURIUM, Strain/Indicator: TA98, Metabolic Activation: NONE, Method: PREINCUBATION) was “inactive; negative” and the mutagenic call (Test System: AMES SALMONELLA TYPHIMURIUM, Strain/Indicator: TA98, Metabolic Activation: RAT, LIVER, S-9, AROCLOR 1254 (10% & 30%), Method: PREINCUBATION) was “inactive; negative”. For the same compound, the mutagenic call (Test System: AMES SALMONELLA TYPHIMURIUM, Strain/Indicator: TA100, Metabolic Activation: HAMSTER, LIVER, S-9, AROCLOR 1254 (10% & 30%), Method: PREINCUBATION) was “inactive; negative”, the mutagenic call (Test System: AMES SALMONELLA TYPHIMURIUM, Strain/Indicator: TA100, Metabolic Activation: NONE, Method: PREINCUBATION) was “inactive; negative” and the mutagenic call (Test System: AMES SALMONELLA TYPHIMURIUM, Strain/Indicator: TA100, Metabolic Activation: RAT, LIVER, S-9, AROCLOR 1254 (10% & 30%), Method: PREINCUBATION) was “inactive; negative”. For the same compound, the mutagenic call (Test System: AMES SALMONELLA TYPHIMURIUM, Strain/Indicator: TA1535, Metabolic Activation: HAMSTER, LIVER, S-9, AROCLOR 1254 (10% & 30%), Method: PREINCUBATION) was “inactive; negative”, the mutagenic call (Test System: AMES SALMONELLA TYPHIMURIUM, Strain/Indicator: TA1535, Metabolic Activation: NONE, Method: PREINCUBATION) was “inactive; negative” and the mutagenic call (Test System: AMES SALMONELLA TYPHIMURIUM, Strain/Indicator: TA1535, Metabolic Activation: RAT, LIVER, S-9, AROCLOR 1254 (10% & 30%), Method: PREINCUBATION) was “inactive; negative”. For the same compound, the mutagenic call (Test System: AMES SALMONELLA TYPHIMURIUM, Strain/Indicator: TA1537, Metabolic Activation: HAMSTER, LIVER, S-9, AROCLOR 1254 (10% & 30%), Method: PREINCUBATION) was “inactive; negative”, the mutagenic call (Test System: AMES SALMONELLA TYPHIMURIUM, Strain/Indicator: TA1537, Metabolic Activation: NONE, Method: PREINCUBATION) was “inactive; negative” and the mutagenic call (Test System: AMES SALMONELLA TYPHIMURIUM, Strain/Indicator: TA1537, Metabolic Activation: RAT, LIVER, S-9, AROCLOR 1254 (10% & 30%), Method: PREINCUBATION) was “inactive; negative”. For the same compound, the mutagenic call (Test System: UDS RAT HEPATOCYTES, Strain/Indicator: THY INCORP, Metabolic Activation: NONE) was “inactive; negative”.
